Laboratory results published in patent publication US20250000083A1, “CRYOPRESERVATION PREPARATION FOR CORNEAL ENDOTHELIAL CELLS AND METHOD FOR PRODUCING SAID CRYOPRESERVATION PREPARATION” (THE DOSHISHA, priority 2021, published 2025).

Tests used:
[1] = test system: Human corneal endothelial cells; test: Adhesion of thawed cells cultured in medium with addition of DMSO (phase contrast microscopy), Example 3; format: cell-based
Experimental: (§1) • 1. Collect cells in the same manner as in Example 2 (Steps 1 to 10) and preserve the cells in cryotubes using Cryostor CS2. • 2. Freeze in a programmable freezer from 4° C. to −80° C. at −0.5° C./min. 3. Transfer to a Bicell processing housing previously cooled at −80° C. when a temperature was decreased to −80° C. and cryopreserve the Bicell in a freezer at −80° C. for 3 days. • 4. After 3 days of cryopreservation, thaw the cryotubes in which the cells were preserved in a water bath at 37° C. for 1 to 2 minutes. • 5. Collect the cells in a medium warmed to 37° C. in advance, and measure the number of cells collected and cell viability by trypan blue staining. • 6. Dispense the collected cells into four 15 mL STEMFULLS and centrifuge at 300 G for 5 minutes. • 7. After centrifugation, remove a supernatant, adjust a cell density to 1000 cells/mm^2 using media containing 10%, 5%, 2%, and 0% DMSO, and reseed in 12-well plates. • 8. Photograph the cells under a phase contrast microscope at 1 h, 3 h, 6 h, and 24 h after seeding. • 9. After taking photographs of the cells at each time point, collect all cells in the container, including floating cells, and determine cell viability by trypan blue staining.

[2] = test system: Human corneal endothelial cells; test: Viability of cells reseeded in medium with DMSO and collected (trypan blue), Example 3; format: cell-based; settings: medium containing 10% DMSO
Experimental: as §1

cell adhesion ([1]; 5% DMSO, after 1 hour): almost no adherent cells
cell adhesion ([1]; 5% DMSO, after 24 hours): almost no adherent cells
cell adhesion ([1]; 10% DMSO, until 24 hours after seeding): no cells were adherent
adhesion rate compared with medium without DMSO ([1]; medium containing 2% DMSO): not different
number of cells compared with medium without DMSO ([1]; medium supplemented with 5% DMSO): significantly lower
number of cells compared with medium without DMSO ([1]; medium supplemented with 10% DMSO): significantly lower
SMILES: C[S+](C)[O-] [DMSO, dimethyl sulfoxide]
cell adhesion ([1]; 5% DMSO, after 3 and 6 hours): less than half of the cells were adherent
viability of cells after reseeded and collected ([2]; at 1 hour): no decrease in viability
viability of cells after reseeded and collected ([2]; subsequent to 1 hour): decrease in viability
